Nc1cc(C(F)(F)F)c(-c2nc(N3CCOCC3)nc(N3CCOCC3)n2)cn1 [Bimiralisib, 5-(4,6-dimorpholino-1,3,5-triazin-2-yl)-4-(trifluoromethyl)pyridin-2-amine]
0 n (%): Infections and infestations, Grade 1, patients (human, in vivo) | Sepsis, Grade 1, patients (human, in vivo) | Sepsis, Grade 2, patients (human, in vivo) | Skin infection, Grade 1, patients (human, in vivo) | Wound infection, Grade 1, patients (human, in vivo) | Wound infection, Grade 3/4, patients (human, in vivo) | Acute respiratory distress syndrome, Grade 1, patients (n = 8) | Acute respiratory distress syndrome, Grade 2, patients (n = 8) | Alanine aminotransferase increased, Grade 1, patients (n = 8) | Alanine aminotransferase increased, Grade 2, patients (n = 8) | Anemia, Grade 1, patients (n = 8) | Anemia, Grade 2, patients (n = 8) | Aspartate aminotransferase increased, Grade 1, patients (n = 8) | Aspartate aminotransferase increased, Grade 2, patients (n = 8) | Asthenia, Grade 2, patients (n = 8) | Asthenia, Grade 3/4, patients (n = 8) | Blood and lymphatic system disorders, Grade 1, patients (n = 8) | Blood and lymphatic system disorders, Grade 2, patients (n = 8) | Blood creatinine increased, Grade 2, patients (n = 8) | Blood creatinine increased, Grade 3/4, patients (n = 8) | Blood glucose increased, Grade 2, patients (n = 8) | Blood glucose increased, Grade 3/4, patients (n = 8) | Cellulitis, Grade 1, patients (n = 8) | Cellulitis, Grade 3/4, patients (n = 8) | Chest pain, Grade 2, patients (n = 8) | Chest pain, Grade 3/4, patients (n = 8) | Confusional state, Grade 2, patients (n = 8) | Confusional state, Grade 3/4, patients (n = 8) | Cough, Grade 2, patients (n = 8) | Cough, Grade 3/4, patients (n = 8) | Decreased appetite, Grade 1, patients (n = 8) | Decreased appetite, Grade 3/4, patients (n = 8) | Dehydration, Grade 1, patients (n = 8) | Dehydration, Grade 3/4, patients (n = 8) | Diarrhea, Grade 1, patients (n = 8) | Diarrhea, Grade 3/4, patients (n = 8) | Disease progression, Grade 1, patients (n = 8) | Disease progression, Grade 2, patients (n = 8) | Dry skin, Grade 2, patients (n = 8) | Dry skin, Grade 3/4, patients (n = 8) | Dysarthria, Grade 2, patients (n = 8) | Dysarthria, Grade 3/4, patients (n = 8) | Ear and labyrinth disorders, Grade 2, patients (n = 8) | Ear and labyrinth disorders, Grade 3/4, patients (n = 8) | Ear pain, Grade 2, patients (n = 8) | Ear pain, Grade 3/4, patients (n = 8) | Eye disorder, Grade 2, patients (n = 8) | Eye disorder, Grade 3/4, patients (n = 8) | Eye disorders, Grade 2, patients (n = 8) | Eye disorders, Grade 3/4, patients (n = 8) | Fatigue, Grade 3/4, patients (n = 8) | Gait disturbance, Grade 2, patients (n = 8) | Gait disturbance, Grade 3/4, patients (n = 8) | Gastroesophageal reflux disease, Grade 2, patients (n = 8) | Gastroesophageal reflux disease, Grade 3/4, patients (n = 8) | Gastrointestinal disorders, Grade 3/4, patients (n = 8)
62.5%: Patients with severe AEs (SAEs, CTCAE grade ≥3) (five patients of 8)
5: Gastrointestinal disorders, Grade 2, total number of events (n = 8)
well tolerated: Tolerability (8 patients, 140 mg orally 2 consecutive days weekly)
3: Infections and infestations, Grade 2, total number of events (human, in vivo) | Infections and infestations, Grade 3/4, total number of events (human, in vivo)
13: Any adverse event, Grade 2, total number of events (n = 8)
No patients: AE leading to dose reduction (8 patients)
0: Infections and infestations, Grade 1, total number of events (human, in vivo) | Sepsis, Grade 1, total number of events (human, in vivo) | Sepsis, Grade 2, total number of events (human, in vivo) | Skin infection, Grade 1, total number of events (human, in vivo) | Wound infection, Grade 1, total number of events (human, in vivo) | Acute respiratory distress syndrome, Grade 1, total number of events (n = 8) | Acute respiratory distress syndrome, Grade 2, total number of events (n = 8) | Alanine aminotransferase increased, Grade 1, total number of events (n = 8) | Alanine aminotransferase increased, Grade 2, total number of events (n = 8) | Anemia, Grade 1, total number of events (n = 8) | Anemia, Grade 2, total number of events (n = 8) | Aspartate aminotransferase increased, Grade 1, total number of events (n = 8) | Aspartate aminotransferase increased, Grade 2, total number of events (n = 8) | Asthenia, Grade 2, total number of events (n = 8) | Asthenia, Grade 3/4, total number of events (n = 8) | Blood and lymphatic system disorders, Grade 1, total number of events (n = 8) | Blood and lymphatic system disorders, Grade 2, total number of events (n = 8) | Blood creatinine increased, Grade 2, total number of events (n = 8) | Blood creatinine increased, Grade 3/4, total number of events (n = 8) | Blood glucose increased, Grade 2, total number of events (n = 8) | Blood glucose increased, Grade 3/4, total number of events (n = 8) | Cellulitis, Grade 1, total number of events (n = 8) | Cellulitis, Grade 3/4, total number of events (n = 8) | Chest pain, Grade 2, total number of events (n = 8) | Chest pain, Grade 3/4, total number of events (n = 8) | Confusional state, Grade 2, total number of events (n = 8) | Confusional state, Grade 3/4, total number of events (n = 8) | Cough, Grade 2, total number of events (n = 8) | Cough, Grade 3/4, total number of events (n = 8) | Decreased appetite, Grade 1, total number of events (n = 8) | Decreased appetite, Grade 3/4, total number of events (n = 8) | Dehydration, Grade 1, total number of events (n = 8) | Dehydration, Grade 3/4, total number of events (n = 8) | Diarrhea, Grade 1, total number of events (n = 8) | Diarrhea, Grade 3/4, total number of events (n = 8) | Disease progression, Grade 1, total number of events (n = 8) | Disease progression, Grade 2, total number of events (n = 8) | Dry skin, Grade 2, total number of events (n = 8) | Dry skin, Grade 3/4, total number of events (n = 8) | Dysarthria, Grade 2, total number of events (n = 8) | Dysarthria, Grade 3/4, total number of events (n = 8) | Ear and labyrinth disorders, Grade 2, total number of events (n = 8) | Ear and labyrinth disorders, Grade 3/4, total number of events (n = 8) | Ear pain, Grade 2, total number of events (n = 8) | Ear pain, Grade 3/4, total number of events (n = 8) | Eye disorder, Grade 2, total number of events (n = 8) | Eye disorder, Grade 3/4, total number of events (n = 8) | Eye disorders, Grade 2, total number of events (n = 8) | Eye disorders, Grade 3/4, total number of events (n = 8) | Fatigue, Grade 3/4, total number of events (n = 8) | Gait disturbance, Grade 2, total number of events (n = 8) | Gait disturbance, Grade 3/4, total number of events (n = 8) | Gastroesophageal reflux disease, Grade 2, total number of events (n = 8) | Gastroesophageal reflux disease, Grade 3/4, total number of events (n = 8) | Gastrointestinal disorders, Grade 3/4, total number of events (n = 8)
25%: Skin infection, AEs irrespective of causality (human, in vivo)
2 (25.0) n (%): Infections and infestations, Grade 2, patients (human, in vivo) | Confusional state, Grade 1, patients (n = 8) | Ear and labyrinth disorders, Grade 1, patients (n = 8) | Fatigue, Grade 1, patients (n = 8) | Gastrointestinal disorders, Grade 1, patients (n = 8)
15: Any adverse event, Grade 3/4, total number of events (n = 8)
2: Confusional state, Grade 1, total number of events (n = 8) | Ear and labyrinth disorders, Grade 1, total number of events (n = 8) | Fatigue, Grade 1, total number of events (n = 8) | Gastrointestinal disorders, Grade 1, total number of events (n = 8)
1: Skin infection, Grade 2, total number of events (human, in vivo) | Wound infection, Grade 2, total number of events (human, in vivo) | Acute respiratory distress syndrome, Grade 3/4, total number of events (n = 8) | Alanine aminotransferase increased, Grade 3/4, total number of events (n = 8) | Anemia, Grade 3/4, total number of events (n = 8) | Aspartate aminotransferase increased, Grade 3/4, total number of events (n = 8) | Asthenia, Grade 1, total number of events (n = 8) | Blood and lymphatic system disorders, Grade 3/4, total number of events (n = 8) | Blood creatinine increased, Grade 1, total number of events (n = 8) | Blood glucose increased, Grade 1, total number of events (n = 8) | Cellulitis, Grade 2, total number of events (n = 8) | Chest pain, Grade 1, total number of events (n = 8) | Cough, Grade 1, total number of events (n = 8) | Decreased appetite, Grade 2, total number of events (n = 8) | Dehydration, Grade 2, total number of events (n = 8) | Diarrhea, Grade 2, total number of events (n = 8) | Disease progression, Grade 3/4, total number of events (n = 8) | Dry skin, Grade 1, total number of events (n = 8) | Dysarthria, Grade 1, total number of events (n = 8) | Ear pain, Grade 1, total number of events (n = 8) | Eye disorder, Grade 1, total number of events (n = 8) | Eye disorders, Grade 1, total number of events (n = 8) | Fatigue, Grade 2, total number of events (n = 8) | Gait disturbance, Grade 1, total number of events (n = 8) | Gastroesophageal reflux disease, Grade 1, total number of events (n = 8)
Two: Patients who died during the study (both events unrelated to treatment) | SAEs related to treatment with bimiralisib (both hyperglycemia)
3 (37.5) n (%): Any adverse event, Grade 2, patients (n = 8) | Gastrointestinal disorders, Grade 2, patients (n = 8)
8 (100.0) n (%): Any adverse event, Grade 1, patients (n = 8)
1 (12.5) n (%): Sepsis, Grade 3/4, patients (human, in vivo) | Skin infection, Grade 2, patients (human, in vivo) | Skin infection, Grade 3/4, patients (human, in vivo) | Wound infection, Grade 2, patients (human, in vivo) | Acute respiratory distress syndrome, Grade 3/4, patients (n = 8) | Alanine aminotransferase increased, Grade 3/4, patients (n = 8) | Anemia, Grade 3/4, patients (n = 8) | Aspartate aminotransferase increased, Grade 3/4, patients (n = 8) | Asthenia, Grade 1, patients (n = 8) | Blood and lymphatic system disorders, Grade 3/4, patients (n = 8) | Blood creatinine increased, Grade 1, patients (n = 8) | Blood glucose increased, Grade 1, patients (n = 8) | Cellulitis, Grade 2, patients (n = 8) | Chest pain, Grade 1, patients (n = 8) | Cough, Grade 1, patients (n = 8) | Decreased appetite, Grade 2, patients (n = 8) | Dehydration, Grade 2, patients (n = 8) | Diarrhea, Grade 2, patients (n = 8) | Disease progression, Grade 3/4, patients (n = 8) | Dry skin, Grade 1, patients (n = 8) | Dysarthria, Grade 1, patients (n = 8) | Ear pain, Grade 1, patients (n = 8) | Eye disorder, Grade 1, patients (n = 8) | Eye disorders, Grade 1, patients (n = 8) | Fatigue, Grade 2, patients (n = 8) | Gait disturbance, Grade 1, patients (n = 8) | Gastroesophageal reflux disease, Grade 1, patients (n = 8)
87.5%: Patients with AEs (any severity) suspected to be related to treatment (7 patients of 8)
25.0%: Aspiration pneumonia, AEs irrespective of causality (any grade, 2 patients of 8) | Confusional state, AEs irrespective of causality (any grade, 2 patients of 8) | Rash, AEs irrespective of causality (any grade, 2 patients of 8) | Vomiting, AEs irrespective of causality (any grade, 2 patients of 8)
23: Number of AEs (any severity) suspected to be related to treatment (in 7 patients)
37.5%: Fatigue, AEs irrespective of causality (any grade, 3 patients of 8) | Hyperglycemia, AEs irrespective of causality (any grade, 3 patients of 8) | Nausea, AEs irrespective of causality (any grade, 3 patients of 8)
5 (62.5) n (%): Any adverse event, Grade 3/4, patients (n = 8) | General disorders and administration site conditions, Grade 1, patients (n = 8)
29: Any adverse event, Grade 1, total number of events (n = 8)

— paper PMC9732253, “Inhibition of the Phosphatidylinositol-3 Kinase Pathway Using Bimiralisib in Loss-of-Function NOTCH1-Mutant Head and Neck Cancer” (The Oncologist, 2022)
